# Results: ChEMBL document CHEMBL4421719, “Modulation of k2p channels” (2016)
# Active and inactive are the calls of the source. The calls are words filed in the database; no cut-off is given here.
# How the values were obtained:
# Assay type in all cases: cell-based
# [1] = target: Potassium channel subfamily K member 3 (Homo sapiens) (UniProt O14649); experiment: Activation of K2P3.1 (unknown origin) expressed in Xenopus oocytes assessed as effect on channel currents at -80 mV holding potential at 100 uM by two-electrode voltage clamp assay relative to control
# Sequence of Potassium channel subfamily K member 3 (Homo sapiens) (O14649 whole entry, looked up): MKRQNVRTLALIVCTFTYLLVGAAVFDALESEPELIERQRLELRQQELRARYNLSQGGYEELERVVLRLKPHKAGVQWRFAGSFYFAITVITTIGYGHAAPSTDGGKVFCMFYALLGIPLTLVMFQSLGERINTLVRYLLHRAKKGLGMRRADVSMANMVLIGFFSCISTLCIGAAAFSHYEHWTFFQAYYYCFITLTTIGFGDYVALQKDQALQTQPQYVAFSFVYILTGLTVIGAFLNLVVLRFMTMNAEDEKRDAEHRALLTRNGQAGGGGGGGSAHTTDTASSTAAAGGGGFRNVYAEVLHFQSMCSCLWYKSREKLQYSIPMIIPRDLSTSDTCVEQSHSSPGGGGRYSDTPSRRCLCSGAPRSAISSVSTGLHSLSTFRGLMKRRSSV
# [2] = target: T1, Potassium channel subfamily K member 2 (Homo sapiens) (UniProt O95069); experiment: Activation of K2P2.1 (unknown origin) expressed in Xenopus oocytes assessed as effect on channel currents at -80 mV holding at 100 uM by two-electrode voltage clamp assay relative to control
# T1 sequence (whole entry): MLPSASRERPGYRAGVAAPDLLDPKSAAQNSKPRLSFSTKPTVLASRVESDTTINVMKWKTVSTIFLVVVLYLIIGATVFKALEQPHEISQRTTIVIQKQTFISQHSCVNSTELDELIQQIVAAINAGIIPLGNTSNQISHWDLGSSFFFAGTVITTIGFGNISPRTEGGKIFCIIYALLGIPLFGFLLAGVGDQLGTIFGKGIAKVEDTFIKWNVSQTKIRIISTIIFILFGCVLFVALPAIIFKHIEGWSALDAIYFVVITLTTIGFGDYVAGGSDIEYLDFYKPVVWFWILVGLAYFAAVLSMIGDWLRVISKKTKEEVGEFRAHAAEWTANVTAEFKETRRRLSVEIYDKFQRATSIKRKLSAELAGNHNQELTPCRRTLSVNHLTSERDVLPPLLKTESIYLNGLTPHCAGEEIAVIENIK
# [3] = tested on: Potassium channel subfamily K member 2 (Homo sapiens), O95069 [UNDEFINED MUTATION]; experiment: Activation of K2P2.1 W275S mutant (unknown origin) expressed in Xenopus oocytes assessed as effect on channel currents at 50 uM at -80 mV holding potential by two-electrode voltage clamp assay
# [4] = tested on: Potassium channel subfamily K member 2 (Homo sapiens), O95069 [UNDEFINED MUTATION]; experiment: Activation of K2P2.1 G137I mutant (unknown origin) expressed in Xenopus oocytes assessed as effect on channel currents at 150 uM at -80 mV holding potential by two-electrode voltage clamp assay relative to control
# [5] = target: T1, Potassium channel subfamily K member 2 (Homo sapiens); experiment: Reversible activation of K2P2.1 (unknown origin) expressed in HEK293T cells assessed as effect on channel currents at -0 mV holding potential at 5 to 20 uM by two-electrode voltage clamp assay relative to control
# [6] = target: T1, Potassium channel subfamily K member 2 (Homo sapiens); experiment: Activation of K2P2.1 (unknown origin) expressed in HEK293T cell membranes in inside-out patch configuration assessed as effect on channel currents by measuring time of return to baseline following compound washout at 20 uM by two-electrode voltage clamp assay relative to control
# [7] = target: Potassium channel subfamily K member 2 (Homo sapiens, UniProt O95069, W275S); experiment: Activation of K2P2.1 W275S mutant (unknown origin) expressed in Xenopus oocytes assessed as effect on channel currents at -80 mV holding potential by two-electrode voltage clamp assay
# [8] = target: T1, Potassium channel subfamily K member 2 (Homo sapiens); experiment: Activation of K2P2.1 (unknown origin) expressed in HEK293T cell membranes in inside-out patch configuration assessed as effect on channel currents at 20 uM by two-electrode voltage clamp assay relative to control
# [9] = tested on: Potassium channel subfamily K member 2 (Homo sapiens), O95069 [UNDEFINED MUTATION]; experiment: Activation of K2P2.1 G137I mutant (unknown origin) expressed in Xenopus oocytes assessed as effect on channel currents at 50 uM at -80 mV holding potential by two-electrode voltage clamp assay
# [10] = target: T1, Potassium channel subfamily K member 2 (Homo sapiens); experiment: Activation of K2P2.1 (unknown origin) expressed in HEK293T cell membranes in inside-out patch configuration assessed as effect on channel currents by measuring time of half-maximal activation at 20 uM by two-electrode voltage clamp assay relative to control
# [11] = target: T1, Potassium channel subfamily K member 2 (Homo sapiens); experiment: Activation of K2P2.1 (unknown origin) expressed in Xenopus oocytes assessed as effect on channel currents at -80 mV holding by two-electrode voltage clamp assay relative to control
# [12] = target: T2, Potassium channel subfamily K member 18 (Homo sapiens) (UniProt Q7Z418); experiment: Activation of K2P18.1 (unknown origin) expressed in Xenopus oocytes assessed as effect on channel currents at -80 mV holding potential by two-electrode voltage clamp assay relative to control
# T2 sequence (whole entry): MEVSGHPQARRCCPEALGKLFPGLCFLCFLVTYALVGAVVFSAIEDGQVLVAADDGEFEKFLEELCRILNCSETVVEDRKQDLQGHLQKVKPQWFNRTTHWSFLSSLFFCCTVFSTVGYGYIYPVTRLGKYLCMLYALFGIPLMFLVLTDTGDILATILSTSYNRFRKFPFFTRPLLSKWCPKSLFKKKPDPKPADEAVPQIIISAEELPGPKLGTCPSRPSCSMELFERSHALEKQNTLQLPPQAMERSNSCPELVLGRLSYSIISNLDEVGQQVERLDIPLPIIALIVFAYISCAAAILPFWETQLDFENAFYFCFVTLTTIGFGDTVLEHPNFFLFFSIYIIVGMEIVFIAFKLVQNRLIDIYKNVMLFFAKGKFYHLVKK
# [13] = target: Potassium channel subfamily K member 9 (Homo sapiens) (UniProt Q9NPC2); experiment: Activation of K2P9.1 (unknown origin) expressed in Xenopus oocytes assessed as effect on channel currents at -80 mV holding potential at 100 uM by two-electrode voltage clamp assay relative to control
# Sequence of Potassium channel subfamily K member 9 (Homo sapiens) (Q9NPC2 whole entry): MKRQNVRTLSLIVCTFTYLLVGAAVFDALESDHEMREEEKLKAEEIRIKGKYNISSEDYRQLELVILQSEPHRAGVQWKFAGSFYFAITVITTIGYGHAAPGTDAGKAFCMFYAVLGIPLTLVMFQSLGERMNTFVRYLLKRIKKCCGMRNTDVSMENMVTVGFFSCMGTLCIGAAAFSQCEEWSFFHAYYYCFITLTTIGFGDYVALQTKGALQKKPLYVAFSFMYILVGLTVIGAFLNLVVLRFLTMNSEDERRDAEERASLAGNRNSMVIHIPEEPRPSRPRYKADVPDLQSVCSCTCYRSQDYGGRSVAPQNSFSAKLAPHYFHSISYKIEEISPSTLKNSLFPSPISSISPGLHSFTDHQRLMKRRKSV
# [14] = target: T1, Potassium channel subfamily K member 2 (Homo sapiens); experiment: Activation of K2P2.1 (unknown origin) expressed in HEK293T cells assessed as effect on channel currents by measuring half-maximal activation time at 5 to 20 uM by two-electrode voltage clamp assay relative to control
# [15] = target: T1, Potassium channel subfamily K member 2 (Homo sapiens); experiment: Activation of K2P2.1 (unknown origin) expressed in HEK293T cell membranes in outside-out patch configuration assessed as effect on channel currents by measuring time of half-maximal activation at 20 uM by two-electrode voltage clamp assay relative to control
# [16] = target: T1, Potassium channel subfamily K member 2 (Homo sapiens); experiment: Activation of K2P2.1 (unknown origin) expressed in HEK293T cells assessed as effect on channel currents at -40 mV holding potential by two-electrode voltage clamp assay relative to control
# [17] = target: T1, Potassium channel subfamily K member 2 (Homo sapiens); experiment: Activation of K2P2.1 (unknown origin) expressed in whole HEK293T cells assessed as effect on channel currents by measuring time of return to baseline following compound washout at 20 uM by two-electrode voltage clamp assay relative to control
# [18] = target: Potassium channel subfamily K member 9 (Homo sapiens) (UniProt Q9NPC2); experiment: Activation of K2P9.1 (unknown origin) expressed in Xenopus oocytes assessed as effect on channel currents at 150 uM at -80 mV holding potential by two-electrode voltage clamp assay relative to control
smiles,measurement,setting,value
CC1(C)c2cc(Cl)ccc2N(CCc2nnn[nH]2)c2ccc(Cl)cc21,Emax,[1],1.1%
same,Emax,[2],11.1%
same,Activity,[3],inactive
same,Emax,[4],0.9
same,Activity,[5],Active
same,T1/2,[6],22 s
same,EC50,[7],21.8 µM
same,Activity,[8],Active
same,Activity,[9],inactive
same,T1/2,[10],10.8 s
same,Emax,[11],11.1 to 11.4
same,Emax,[12],0.9
same,Emax,[13],2%
same,TIME,[14],0.00114 h
same,T1/2,[15],4.6 s
same,Emax,[16],11.4
same,T1/2,[17],3.9 s
same,Emax,[18],2.1
